No end group written: not given here.
Target: HLA B7 (Homo sapiens, UniProt P01889)
Experiment: biochemical
Conditions: not given

HLA B7, sequence (P01889 25-362): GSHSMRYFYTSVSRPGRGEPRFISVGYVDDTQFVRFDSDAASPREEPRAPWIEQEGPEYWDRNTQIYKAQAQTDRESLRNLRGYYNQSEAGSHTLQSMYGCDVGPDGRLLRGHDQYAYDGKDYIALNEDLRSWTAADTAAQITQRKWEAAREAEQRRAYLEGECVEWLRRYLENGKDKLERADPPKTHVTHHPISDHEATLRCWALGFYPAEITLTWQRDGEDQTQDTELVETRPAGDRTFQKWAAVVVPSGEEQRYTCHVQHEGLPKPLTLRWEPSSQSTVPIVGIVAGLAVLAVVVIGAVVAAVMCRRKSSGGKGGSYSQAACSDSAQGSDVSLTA
HLA B7, sequence (P61769 21-119, further chain): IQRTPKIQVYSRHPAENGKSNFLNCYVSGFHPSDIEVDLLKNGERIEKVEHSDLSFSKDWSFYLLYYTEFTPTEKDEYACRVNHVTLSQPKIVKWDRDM

With IPLTINKEEAL [IPLTINKEEAL] the IC50 was greater than 30 µM.

System: FeLV subunit vaccine
Experiment: not given
Conditions: cats; cited from earlier work

In the case of QS-21, the “augmenting the immunogenicity of an FeLV subunit vaccine” value is given as “highly effective”.

Target: T1, HLA A2.1 (Homo sapiens, UniProt P04439, D140Y/D185E/D98H/E176V/E277Q/G131W/G231S/I119V/I121R/I166T/I218V/L300P/L318F/N151K/N90K/P208A/P217A/Q86G/Q94H/R138H/R169H/T345S)
T1 construct: endogenous in cells
Experiment: biochemical
Type: binding
Conditions: not given
Excerpt: (§1) Purification of HLA class I molecules.

`CC[C@H](C)[C@H](NC(=O)[C@@H](NC(=O)[C@@H](N)CC(C)C)[C@@H](C)O)C(=O)N[C@@H](CC(N)=O)C(=O)N[C@@H](CCCCN)C(=O)N[C@@H](CCC(=O)O)C(=O)N[C@@H](CCC(=O)O)C(=O)N[C@@H](C)C(=O)N[C@@H](CC(C)C)C(=O)O` [LTINKEEAL] and PLTINKEEAL [PLTINKEEAL] cannot be ordered by IC50: greater than 30 µM for the first, greater than 30 µM for the second.

CITQGKAI and HVASGAGEAAI cannot be ordered by IC50: greater than 50 µM for the first, greater than 50 µM for the second.

TINKEEAL [TINKEEAL] and DLSSCITQGKA cannot be ordered by IC50: greater than 30 µM for the first, greater than 50 µM for the second.

VASGAGEAAI and ATGFKQSSKAL [ATGFKQSSKAL] cannot be ordered by IC50: greater than 50 µM for the first, greater than 30 µM for the second.

PLTINKEEA gave an IC50 greater than 30 µM.

Target: T2, HLA A3.2 (Homo sapiens, UniProt P04439)
T2 construct: endogenous in cells
T2 sequence (P61769 21-119): as the sequence (P61769 21-119, further chain) above
T2 sequence (P04439 25-365): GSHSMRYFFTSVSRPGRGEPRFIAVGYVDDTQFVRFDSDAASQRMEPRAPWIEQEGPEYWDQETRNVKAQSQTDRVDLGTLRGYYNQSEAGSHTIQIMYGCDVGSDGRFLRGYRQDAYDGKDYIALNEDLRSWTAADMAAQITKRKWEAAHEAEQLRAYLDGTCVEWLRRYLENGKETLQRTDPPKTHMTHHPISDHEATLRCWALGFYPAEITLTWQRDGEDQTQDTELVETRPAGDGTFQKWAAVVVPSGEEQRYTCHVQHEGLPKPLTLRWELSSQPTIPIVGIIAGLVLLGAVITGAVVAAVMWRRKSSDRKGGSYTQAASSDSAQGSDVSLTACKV
Experiment: biochemical
Type: binding
Conditions: not given
Excerpt: as §1

First: QSSKALQR
Second: KQSSKALQR
The IC50 of the first is higher: greater than 30000 nM for the first, 43 nM for the second.

LTINKEEALQR gave an IC50 greater than 30000 nM.

Same assay, conditions: AFFINITY (nM) A3.2, Table 1, CML peptides; 50% inhibition of standard peptide binding

Compared with SATGFKQSSK, ATGFKQSSK is 18-fold lower in IC50: 5450 nM for the first, 300 nM for the second. The second is the more potent here.

Compared with TINKEEALQR, GFKQSSKALQR is lower in IC50: greater than 30000 nM for the first, 810 nM for the second.

HSATGFKQSSK and FKQSSKALQR are within 1.5-fold of each other in IC50: 400 nM for the first, 545 nM for the second.

TGFKQSSK gave an IC50 greater than 30000 nM.

Same assay, conditions: concentration for 50% inhibition, HLA A3.2, text b187

ATGFKQSSK and HSATGFKQSSK cannot be ordered by IC50: 100 to 500 nM for the first, 400 nM for the second.

System: HIV-1 recombinant vaccine
Experiment: not given
Conditions: Rhesus monkeys; cited from earlier work

For QS-21, the “augmenting the immunogenicity of an HIV-1 recombinant vaccine” value is listed as “highly effective”.

Source: patent publication US6156316A, “Oncogene fusion protein peptide vaccines” (Sloan-Kettering Institute for Cancer Research, priority 1995, dated 2000)
